The values below come from ChEMBL document CHEMBL5233248, “Resveratrol - A comprehensive review of recent advances in anticancer drug design and development” (Eur J Med Chem, 2020).

One data set has as its system BXPC-3. Nature of the data set: Anticancer activity against human BXPC-3 cells assessed as cell growth inhibition incubated for 72 hrs by MTT assay. Type of data set: functional, cell-based. To be noted: BXPC-3, 72 h. On the technique in general: Formazan colour is commonly taken as a measure of viable cells.
A further data set relates to Capan-2. In words: Anticancer activity against human Capan-2 cells assessed as cell growth inhibition incubated for 72 hrs by MTT assay. To be noted: Capan-2, 72 h. It is filed as functional, cell-based.
The test system of a further data set is ASPC1. Nature of the data set: Anticancer activity against human ASPC1 cells assessed as cell growth inhibition incubated for 72 hrs by MTT assay. To be noted: ASPC1, 72 h. Type of data set: functional, cell-based.
Data set [1] is described as follows: in vitro. To be noted: human, CCD-1059Sk cells and MCF7 cells.
Description: Selectivity index, ratio of IC50 for cytotoxicity against CCD-1059Sk cells to IC50 for antiproliferative activity against MCF7 cells
The subject of data set [2] is MCF7. In words: Anticancer activity against human MCF7 cells assessed as cell growth inhibition incubated for 48 hrs in presence of resveratrol by MTS assay. Type of data set: functional, cell-based. To be noted: MCF7, 48 h.
The nature of data set [3]: in vitro. To be noted: human, CCD-1059Sk cells and MCF7 cells. The source holds these as a separate data set.
Description: Selectivity index, ratio of IC50 for cytotoxicity against CCD-1059Sk cells to IC50 for antiproliferative activity against MCF7 cells in presence of resveratrol
The nature of data set [4]: Cytotoxicity activity against human CCD-1059Sk cells assessed as cell growth inhibition incubated for 48 hrs in presence of resveratrol by MTS assay. It is filed as toxicity, cell-based.
Data set [5] relates to MCF7. In words: Anticancer activity against human MCF7 cells assessed as cell growth inhibition incubated for 48 hrs by MTS assay. To be noted: MCF7, 48 h. Type of data set: functional, cell-based.
Data set [6] is described as follows: Cytotoxicity activity against human CCD-1059Sk cells assessed as cell growth inhibition incubated for 48 hrs by MTS assay. It is filed as toxicity, cell-based.
A further data set concerns the target T1, Aromatase (Homo sapiens, UniProt P11511).
T1 sequence (P11511 whole entry): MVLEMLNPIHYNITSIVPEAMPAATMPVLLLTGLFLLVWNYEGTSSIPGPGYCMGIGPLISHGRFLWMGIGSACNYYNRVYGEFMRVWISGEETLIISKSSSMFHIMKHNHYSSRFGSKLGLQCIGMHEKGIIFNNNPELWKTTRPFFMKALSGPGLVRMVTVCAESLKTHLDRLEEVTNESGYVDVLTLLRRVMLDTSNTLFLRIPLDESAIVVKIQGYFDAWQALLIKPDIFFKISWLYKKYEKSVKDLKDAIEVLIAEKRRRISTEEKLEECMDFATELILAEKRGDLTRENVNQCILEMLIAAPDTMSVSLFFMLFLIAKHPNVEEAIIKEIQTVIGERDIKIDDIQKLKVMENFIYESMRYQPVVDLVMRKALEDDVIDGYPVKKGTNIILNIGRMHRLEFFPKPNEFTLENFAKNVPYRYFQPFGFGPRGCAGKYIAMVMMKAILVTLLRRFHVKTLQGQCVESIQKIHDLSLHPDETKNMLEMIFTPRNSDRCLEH
Nature of the data set: Inhibition of human recombinant aromatase using 7-methoxy-4-trifluoromethyl coumarin as substrate preincubated for 10 mins followed by compound addition measured after 30 mins in presence of NADPH by HTS analysis.

For a further data set, the system named is UACC-62. In words: Anticancer activity against human UACC-62 cells assessed as cell growth inhibition. It is filed as functional.
In the next data set the test system is SF-295. Nature of the data set: Anticancer activity against human SF-295 cells assessed as cell growth inhibition. Type of data set: functional.
In a further data set the test system is MV4-11. Nature of the data set: Anticancer activity against human MV4-11 cells assessed as cell growth inhibition. To be noted: read-out: LD50 (the source's name). Type of data set: functional.
The test system of the next data set is MDA-MB-435. Nature of the data set: Anticancer activity against human MDA-MB-435 cells assessed as cell growth inhibition. It is filed as functional.
For data set [7], the system named is Panel NCI-60 (60 carcinoma cell lines). Nature of the data set: Growth inhibition of human Panel NCI-60 (60 carcinoma cell lines). Type of data set: functional.
The next data set relates to PC-3. Nature of the data set: Anticancer activity against human PC-3 assessed as cell growth inhibition incubated for 24 hrs by MTT assay. It is filed as functional, cell-based. To be noted: PC-3, 24 h.
The test system of data set [8] is MCF7. Nature of the data set: Anticancer activity against human MCF7 assessed as cell growth inhibition incubated for 24 hrs by MTT assay. It is filed as functional, cell-based. To be noted: MCF7, 24 h.
A further data set deals with HepG2. Nature of the data set: Anticancer activity against human HepG2 cells assessed as cell growth inhibition incubated for 3 days by MTT assay. Type of data set: functional, cell-based. To be noted: HepG2, 72 h.
Data set [9] relates to HeLa. In words: Anticancer activity against human HeLa cells assessed as cell growth inhibition incubated for 48 hrs by MTT assay. It is filed as functional, cell-based.
In the next data set the test system is HL-60. In words: Anticancer activity against human HL-60 cells assessed as cell growth inhibition incubated for 48 hrs by MTT assay. It is filed as functional, cell-based. To be noted: HL-60, 48 h.
Data set [10] concerns HeLa. Nature of the data set: Anticancer activity against human HeLa cells assessed as cell growth inhibition. Type of data set: functional, cell-based.

Structures are written as SMILES.

Consider `Nc1ccc(/C=C/c2ccc(O)cc2)cc1`, for which the values for the IC50 in the data set on BXPC-3, in the data set on Capan-2 and in the data set with ASPC1 were 22.5 µM, 3.03 µM and 3.23 µM, respectively.

On to `COc1cc(/C=C/C(=O)CC(=O)/C=C/c2ccc(O)c(OC)c2)ccc1O` [CURCUMIN], for which the selectivity ratio in “in vitro [1]” is 1.93; in “in vitro [3]”, 1.35. Moreover, the results for the half-maximal inhibitory concentration (IC50) with MCF7 [2] and with MCF7 [5] were 61.7 µM and 68.2 µM, respectively. The IC50 at 48 h in data set [4] came out at 83.1 µM; in data set [6], 133 µM.

For the compound `COc1ccccc1/C=C/c1ccc(OC)c(OC)c1`, the concentration for half-maximal inhibition (IC50) on Aromatase turned out to be 85 µM.

As for `COc1ccc(/C(C#N)=C/c2ccc3ccccc3c2)cc1OC`, the GI50 with UACC-62, in the data set on SF-295 and with MDA-MB-435 was 0.025 µM in each case. In addition, the CC50 with MV4-11 amounted to 0.45 µM.

`COc1ccc(/C=C(\C#N)c2cc(OC)c(OC)c(OC)c2)cc1O`: the GI50 in data set [7] is less than 0.01 µM.

The compound `COc1ccc(/C=C\c2cc(OC)c(OC)c(OC)c2)cc1O` [COMBRETASTATIN A4] returned a GI50 in data set [7] of less than 0.01 µM.

On to `Oc1ccc(/C=C/c2cccc(Br)n2)cc1O`, for which the half-inhibitory concentration (IC50) came to 12.4 µM in the data set with PC-3 and 14.5 µM with MCF7 [8].

As to `CCOc1cc(/C=C/c2ccc(O)c(O)c2)cc(OCC)c1`, in the data set with HepG2, the IC50 is 67.2 µM.

Turning to `COc1ccc(NC(=O)c2cc(OC)cc(OC)c2)cc1`, the IC50 in the data set on HeLa [9] was 38.9 µM; in the data set on HL-60 it was 47.7 µM.

With `CC(=O)Oc1ccc(/C=C/c2ncc3cccc(OC(C)=O)c3n2)cc1OC(C)=O`, the IC50 in the data set on HeLa [10] turned out to be 10.2 µM.

One may read the IC50 as the concentration needed to halve the response being measured. The term GI50 denotes the concentration giving 50% growth inhibition.
